Here are results for three compounds from ChEMBL document CHEMBL1155738, “Suppressors of cancer cell proliferation from fig (Ficus carica) resin: isolation and structure elucidation” (J Nat Prod, 2001).

The source made the active and inactive calls. The rule behind the calls is not given here.

The experiment deals with Raji. As to the kind of experiment: Cytotoxicity against human Raji cells at 25 to 50 ug/mL after 3 days by MTT assay. The format is functional, cell-based.
`CCCCCCCCCCCCCCCCCC(=O)OC[C@H]1O[C@@H](O[C@H]2CC[C@@]3(C)C(=CC[C@H]4[C@@H]5CC[C@H]([C@H](C)CC[C@H](CC)C(C)C)[C@@]5(C)CC[C@@H]43)C2)[C@H](O)[C@@H](O)[C@@H]1O`: the result was Active.

For `CCCCC/C=C/C/C=C/CCCCCCCC(=O)OC[C@H]1O[C@@H](O[C@H]2CC[C@@]3(C)C(=CC[C@H]4[C@@H]5CC[C@H]([C@H](C)CC[C@H](CC)C(C)C)[C@@]5(C)CC[C@@H]43)C2)[C@H](O)[C@@H](O)[C@@H]1O`, the result was Active. In the case of `CCCCCCCCCCCCCCCC(=O)OC[C@H]1O[C@@H](O[C@H]2CC[C@@]3(C)C(=CC[C@H]4[C@@H]5CC[C@H]([C@H](C)CC[C@H](CC)C(C)C)[C@@]5(C)CC[C@@H]43)C2)[C@H](O)[C@@H](O)[C@@H]1O` it was “Active”.
